From US12576051B2, “Methods and composition for treating respiratory obstructive diseases” (The Regents of the University of California, priority 2019, dated 2026)

Experiments:
[1] = system: Muc5ac mucin from porcine airway mucus; assay: Mucolytic effect on Muc5ac mucin from porcine airway mucus (western blot, densitometry); format: biochemical; conditions: 2 mM, 30 mins at 37° C.; compound preincubated in HCO3-Ringer, HCO3-Ringer/acetic acid or acetate buffer pH 4.5
Method: (§1) (Upper panel) Identification of Muc5ac mucin (black arrow) by western blot, from airway mucus sample collected in HCO3-Ringer and treated with or without 2 mM of compound 646 for 30 mins at 37° C. Lane CTRL, untreated sample as control. Lane Bic, sample treated with compound preincubated in HCO3-Ringer; lane Bic/Ac, sample treated with compound preincubated with 1:1 HCO3-Ringer/Acetic acid 0.1N; lane Ac, sample treated with compound preincubated in acetate buffer 1M, pH 4.5. Lower panel, densitometric analysis of the protein bands identified with the Muc5ac mucin antibody. Densitometric signal of the sample control (CTRL) was normalized as 100% (% arbitrary units).
as §1, with “647” for “646”, “4.5, as described under Methods.” for “4.5.”, “units). Control is pH 8, Bic 7.4, Bic/AC 6.9 AND AC 6.2” for “units).”
as §1, with “655” for “646”
as §1, with “compounds 656” for “compound 646”

secreted Muc5ac mucin = assay: Mucolytic activity on secreted Muc5ac mucin of open porcine trachea sections (western blot); conditions: 2 mM, HCO3-Ringer with PGE2 (1 uM), 10 minutes at 37° C.; FIG. 18
Method: FIG. 18 provides the mucolytic activity of compounds on secreted Muc5ac mucin. Epithelial luminal surface of open porcine trachea sections (˜2 cm^2) were covered with HCO3-Ringer solution ([…]) containing PGE2 (1 uM), and alcian blue (0.02%), with or without compounds at a 2 mM final concentration, and incubated for 10 minutes at 37° C. Equal volumes of each collected sample were separated on vertical electrophoresis, and then transfer to an immobilon-P membrane for western blot analysis. […] Densitometric signal of the untreated sample, as control, was normalized to 100% (% arbitrary units).
Epithelial luminal surface of open porcine trachea sections (˜2 cm^2) were covered with […] of HCO3-Ringer solution containing PGE2 (1 uM), in the presence or absence of compounds at a 2 mM final concentration, and incubated for 5 minutes at 37° C. Afterwards, […] of sterile 7% NaCl inhaled solution was added and incubated for another 5 mins at 37° C. Equal volumes of each collected sample were separated on vertical electrophoresis, and then transferred to an immobilon-P membrane for western blot analysis. […] Densitometric signal of the non-treated sample, as control, was normalized to 100% (% arbitrary units).

porcine airway = assay: Ex vivo porcine airway models (summary statement)
Source text: Abnormal mucus accumulation in airways has deleterious, and fatal consequence in patients suffering from respiratory obstructive diseases, such as cystic fibrosis (CF), COPD and asthma. Therefore, there is a need for therapies aimed at decreasing mucus accumulation to facilitate airway mucus clearance.

2-aminoethane-1-d-1-thiol hydrochloride [Compound 646]
influence of acidic and basic conditions on mucolytic activity on porcine Muc5ac mucin [1]: enhanced under acidic conditions | native Muc5ac levels on epithelial luminal surfaces (immunoblot) (secreted Muc5ac mucin): decreased native Muc5ac levels | accumulation of viscous mucus and mucociliary clearance (porcine airway): prevented accumulation of viscous mucus and improves mucociliary clearance
